The values below come from article PMC10477481 (The Journal of Biological Chemistry, 2023).

For test [1], the target named is T1, recombinant human active MMP-2 (Homo sapiens, UniProt P08253).
T1 construct: the mature active enzyme (amino acids: 110–660), expressed in E. coli (Sigma, catalog no.: SRP3118); purchased Sigma SRP3118; host or cells: E. coli
T1 sequence (P08253 110-660): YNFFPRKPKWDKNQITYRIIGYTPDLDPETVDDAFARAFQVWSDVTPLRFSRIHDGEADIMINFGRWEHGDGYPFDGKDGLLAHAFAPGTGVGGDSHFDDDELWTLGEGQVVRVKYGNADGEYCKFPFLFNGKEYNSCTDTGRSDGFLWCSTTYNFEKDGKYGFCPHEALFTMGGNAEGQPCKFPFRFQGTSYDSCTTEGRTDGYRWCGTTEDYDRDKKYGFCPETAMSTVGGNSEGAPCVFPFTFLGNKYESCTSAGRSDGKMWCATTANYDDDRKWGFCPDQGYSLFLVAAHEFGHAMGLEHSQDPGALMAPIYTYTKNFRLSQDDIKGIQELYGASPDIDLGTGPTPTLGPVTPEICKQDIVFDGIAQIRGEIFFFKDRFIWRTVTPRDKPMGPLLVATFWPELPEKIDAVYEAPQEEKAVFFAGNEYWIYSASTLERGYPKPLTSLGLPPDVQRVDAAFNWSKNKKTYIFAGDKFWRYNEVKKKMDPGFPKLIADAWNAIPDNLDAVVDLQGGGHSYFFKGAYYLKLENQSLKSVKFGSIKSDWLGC
In kind it is biochemical. The note with it: pH 7.4.
Description: The assay was performed using fluorogenic dye-quenched (DQ)-gelatin from pig skin (ThermoFisher Scientific) as substrate and recombinant human MMP-2 enzyme (Sigma; catalog no.: SRP3118), dissolved in water (100 μg/ml), and diluted further in reaction buffer (50 mM Tris, 150 mM NaCl, 5 mM CaCl2, pH = 7.4). The assay (and control) reactions were composed by loading 50 μl enzyme (or buffer), 40 μl inhibitor (or buffer), and 10 μl substrate (or buffer) into wells of a 96-well plate (PS, black, half-area, clear-bottom; Greiner Bio-One) at concentrations needed for the stated final concentrations. […] Immediately thereafter, the plate was placed in a fluorescence plate reader (SpectraMax iD3; Molecular Devices), and fluorescence was measured every 15 min for 3 h (KM measurements) or every 5 min for 1 h (inhibitor measurements) at 37 °C (λexcitation = 484 nm and λemission = 525 nm). KM was determined by measuring V0 at a series of substrate concentrations (1.25, 2.5, 5, 10, 20, and 40 μg/ml) and enzyme concentrations of 2.5, 5, and 10 nM. Thereafter, the lowest enzyme concentration with reasonably good signal-to-noise ratio (2.5 nM) and a substrate concentration (3.5 μg/ml) approximately equivalent with the determined KM value (3.4 μg/ml, i.e., 34 nmol/l as calculated with approximate MW of 100,000 g/mol for DQ gelatin) were applied in the enzyme inhibition study. […]

Test [2] concerns pro-MMP-2 activated by APMA. To be noted: fluorescence-quenched MMP-specific peptide substrate; read-out: KM of FS-6 with MMP; cited from earlier work. Here is the method:
The assay was performed using a fluorescence-quenched MMP-specific peptide substrate FS-6 (Sigma; catalog no.: SCP0193, KM >30 μM) ([20]). Recombinantly produced human proMMP2 enzyme, dissolved in reaction buffer (70 mM Tris [pH 8.0], 150 mM NaCl, 5 mM CaCl2, 1 μM ZnCl2, and 0.05% Brij-35) at a concentration of 500 nM, was activated by addition of 1 mM APMA and incubated at 37 °C for 1 h. The assay reaction was then composed by adding 0.5 μl activated enzyme to yield a final concentration of 2.5 nM, 94.5 μl test substance (inhibitor) in reaction buffer, and finally 5 μl substrate to reach a fi ...

The target in test [3] is matrix metalloproteinase 2, recombinant (which of the four preparations is not told) (human) (UniProt P08253). Briefly: flow cytometry of protein-coated microbeads (Ig-coated bead test); KD estimated by the authors from the direct binding assays with labeled CTX and the competitive displacement studies together.
The subject of the next test is kallikrein. To be noted: cited from earlier work. The source says: Therefore, we produced a CTX-displaying phage clone, customized, and validated the flow cytometry–based cobalt-coated bead test for quantitative assessment of the binding tendency of ligand-displaying phages to target proteins immobilized on the surface of microbeads. To support the validation and to investigate the specificity of bind ...

Turning to `CNC(=O)[C@H](Cc1c[nH]c2ccccc12)NC(=O)[C@@H](CC(=O)NO)CC(C)C` [Ilomastat, ilomastat], in test [1], the “effect on gelatinolytic activity of MMP-2” value is “concentration-dependent inhibition”.
Turning to “Mca-Lys-Pro-Leu-Gly-Leu-Dpa-Ala-Arg-NH2 [FS-6, fluorescence-quenched MMP-specific peptide substrate]”, in test [2], the Km was over 30 µM.
As for “chlorotoxin, synthetically produced, with carboxamide C terminus (from UniProt P45639 1-36) (peptide)”, in test [3], the Kd was 0.5 to 0.6 µM.
For ecallantide [DX-88], the affinity to kallikrein result in the test on kallikrein is “subnanomolar affinity”.

For orientation: Km means the concentration of substrate that gives half-maximal velocity. Broadly, the Kd is the free concentration of one partner at which half of the binding sites on the other are occupied at equilibrium, for simple one-to-one binding.
